Drawing on ChEMBL document CHEMBL5236644, “Multitargeting approaches to cognitive impairment: Synthesis of aryl-alkylpiperazines and assessment at cholinesterases, histamine H3 and dopamine D3 receptors” (Bioorg Med Chem, 2023), this text covers IC50, inhibition and Ki for 25 molecules.

One assay deals with Acetylcholinesterase (Electrophorus electricus, UniProt O42275). The experiment in a line: Inhibition of electrical eel AChE using acetylthiocholine chloride as substrate preincubated for 15 mins followed by substrate addition and measured after 30 mins by DTNB reagent based Ellman's method.
Chain of Acetylcholinesterase (O42275 whole entry): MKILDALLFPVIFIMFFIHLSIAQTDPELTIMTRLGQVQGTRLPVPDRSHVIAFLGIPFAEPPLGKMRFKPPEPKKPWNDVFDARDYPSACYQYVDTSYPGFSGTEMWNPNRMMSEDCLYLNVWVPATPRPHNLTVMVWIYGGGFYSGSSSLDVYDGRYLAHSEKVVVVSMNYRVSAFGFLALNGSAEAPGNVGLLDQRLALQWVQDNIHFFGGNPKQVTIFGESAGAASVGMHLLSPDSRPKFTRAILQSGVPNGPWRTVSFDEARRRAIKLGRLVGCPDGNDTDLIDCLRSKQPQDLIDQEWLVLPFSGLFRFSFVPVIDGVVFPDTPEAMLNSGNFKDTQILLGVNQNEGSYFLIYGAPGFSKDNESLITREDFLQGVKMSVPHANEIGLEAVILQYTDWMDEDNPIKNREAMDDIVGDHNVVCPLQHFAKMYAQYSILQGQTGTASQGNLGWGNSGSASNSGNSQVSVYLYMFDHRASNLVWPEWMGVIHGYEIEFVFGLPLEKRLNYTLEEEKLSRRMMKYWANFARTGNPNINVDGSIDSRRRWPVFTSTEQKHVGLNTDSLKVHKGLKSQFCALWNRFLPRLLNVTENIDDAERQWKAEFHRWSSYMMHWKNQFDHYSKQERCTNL
For another assay, the target named is Cholinesterase (Equus caballus, UniProt P81908). The experiment in a line: Inhibition of equine BChE using acetylthiocholine chloride as substrate preincubated for 15 mins followed by substrate addition and measured after 30 mins by DTNB reagent based Ellman's method. (In general: DTNB colorimetry detects thiols as they appear.)
Chain of Cholinesterase (P81908 whole entry): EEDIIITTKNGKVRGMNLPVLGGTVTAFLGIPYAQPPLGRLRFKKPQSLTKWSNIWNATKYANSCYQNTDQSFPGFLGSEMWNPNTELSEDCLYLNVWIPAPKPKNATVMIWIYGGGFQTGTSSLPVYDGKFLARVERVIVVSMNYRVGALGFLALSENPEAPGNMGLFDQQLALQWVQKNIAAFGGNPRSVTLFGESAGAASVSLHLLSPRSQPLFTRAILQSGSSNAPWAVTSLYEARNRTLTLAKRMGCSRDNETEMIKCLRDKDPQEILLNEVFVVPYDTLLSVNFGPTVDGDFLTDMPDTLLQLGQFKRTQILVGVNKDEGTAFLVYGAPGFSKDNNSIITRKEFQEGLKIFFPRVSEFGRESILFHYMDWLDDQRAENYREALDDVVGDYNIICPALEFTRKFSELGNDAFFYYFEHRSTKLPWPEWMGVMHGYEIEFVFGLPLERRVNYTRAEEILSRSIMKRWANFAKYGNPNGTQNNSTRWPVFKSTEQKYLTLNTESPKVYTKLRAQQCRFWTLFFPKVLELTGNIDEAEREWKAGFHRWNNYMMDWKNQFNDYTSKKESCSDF
In assay [1] the target is T1, Histamine H3 receptor (Homo sapiens, UniProt Q9Y5N1). As to the kind of experiment: Inhibition of human H3 receptor incubated for 90 mins by scintillation counting method relative to control.
T1 sequence (Q9Y5N1 whole entry): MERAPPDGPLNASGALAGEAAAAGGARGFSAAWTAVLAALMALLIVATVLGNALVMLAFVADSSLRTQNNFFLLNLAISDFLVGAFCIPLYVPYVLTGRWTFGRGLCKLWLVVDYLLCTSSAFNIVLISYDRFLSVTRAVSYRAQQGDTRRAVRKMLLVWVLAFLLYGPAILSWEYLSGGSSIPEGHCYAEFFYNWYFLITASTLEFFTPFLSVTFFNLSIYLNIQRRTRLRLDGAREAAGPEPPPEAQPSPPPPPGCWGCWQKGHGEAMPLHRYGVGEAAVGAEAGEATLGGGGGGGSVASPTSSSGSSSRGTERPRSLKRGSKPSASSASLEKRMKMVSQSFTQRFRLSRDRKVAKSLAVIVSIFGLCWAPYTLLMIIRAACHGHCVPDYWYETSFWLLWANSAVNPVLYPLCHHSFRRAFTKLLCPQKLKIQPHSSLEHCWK
Assay [2] concerns the target T2, D(3) dopamine receptor (Homo sapiens, UniProt P35462). As to the kind of experiment: Inhibition of human D3 receptor expressed in CHO cells at 10 uM by scintillation counting method relative to control. In kind it is cell-based.
The target in assay [3] is T2, D(3) dopamine receptor. The experiment in a line: Binding affinity to human D3 receptor expressed in CHO cells assessed as inhibition constant by scintillation counting method. In kind it is cell-based.
Assay [4] concerns the target T1, Histamine H3 receptor. The experiment in a line: Binding affinity to human H3 receptor assessed as inhibition constant incubated for 90 mins by scintillation counting method.
In assay [5] the target is T1, Histamine H3 receptor. As to the kind of experiment: Inhibition of human H3 receptor at 10 uM incubated for 90 mins by scintillation counting method relative to control.
In assay [6] the target is Cholinesterase (Equus caballus) (UniProt P81908). The experiment in a line: Inhibition of equine BChE at 100 uM using acetylthiocholine chloride as substrate preincubated for 15 mins followed by substrate addition and measured after 30 mins by DTNB reagent based Ellman's method relative to control. Conditions: time 45.0 min.
Chain of Cholinesterase (Equus caballus) (P81908 whole entry): as the sequence (P81908 whole entry) above
The target of assay [7] is T2, D(3) dopamine receptor. The experiment in a line: Inhibition of human D3 receptor expressed in CHO cells at 1 uM by scintillation counting method relative to control. In kind it is cell-based.
Assay [8] concerns the target T1, Histamine H3 receptor. As to the kind of experiment: Inhibition of human H3 receptor at 1 uM incubated for 90 mins by scintillation counting method relative to control.
Assay [9] has as its target T2, D(3) dopamine receptor. As to the kind of experiment: Inhibition of human D3 receptor expressed in CHO cells assessed as inhibition constant by scintillation counting method. In kind it is cell-based.

The structures appear in SMILES notation.

T2 sequence (P35462 whole entry): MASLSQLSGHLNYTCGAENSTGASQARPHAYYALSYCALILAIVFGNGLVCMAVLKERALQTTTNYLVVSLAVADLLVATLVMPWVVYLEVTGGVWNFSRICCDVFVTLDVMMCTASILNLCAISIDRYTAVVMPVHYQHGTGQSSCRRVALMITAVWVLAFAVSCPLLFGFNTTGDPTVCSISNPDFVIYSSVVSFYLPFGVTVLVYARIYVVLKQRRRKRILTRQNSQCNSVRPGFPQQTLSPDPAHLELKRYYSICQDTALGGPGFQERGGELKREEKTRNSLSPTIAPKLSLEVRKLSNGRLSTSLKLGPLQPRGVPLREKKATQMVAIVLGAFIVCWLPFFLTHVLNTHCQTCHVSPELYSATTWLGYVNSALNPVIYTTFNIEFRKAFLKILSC

For the molecule `CC(C)N1CCN(CCCCOc2ccc3c(c2)NC(=O)CC3)CC1`, the values for the IC50 against Acetylcholinesterase and against Cholinesterase were 1.6 µM and 16.7 µM, respectively.

On to `Clc1ccc(CCCOCCCN2CCCCC2)cc1`, for which the inhibition – broadly, the change of the read-out against control, counted positive when it falls – against Histamine H3 receptor [1] turned out to be 99.8%.

As to `CN1CCN(CCCOc2ccc3ccccc3c2)CC1`, the inhibition against D(3) dopamine receptor [2] came out at 22.8%; at Histamine H3 receptor [5], 80.5%; in [6] it was 70%. For the same molecule, the Ki (in general, a measure of affinity in units of concentration, obtained from inhibition or displacement) on D(3) dopamine receptor [3] is 0.0007 µM; on Histamine H3 receptor [4] it was 2.8 µM. For the same molecule, the IC50 – broadly, the concentration at which inhibition is half-maximal – against Cholinesterase came to 26.3 µM.

As to `CN1CCN(CCCOC(=O)c2cccc3ccccc23)CC1`, the values for the inhibition (on D(3) dopamine receptor [2]; on Histamine H3 receptor [5]; in assay [6]) were 71.5%, 83.8% and 50.6%, respectively. The Ki at D(3) dopamine receptor [3] is > 0.01 µM; at Histamine H3 receptor [4], 3.7 µM.

As for `CN1CCN(CCOC(=O)c2cccc3ccccc23)CC1`, the inhibition against D(3) dopamine receptor [2] worked out at 49.7%; on Histamine H3 receptor [5], 69%; in [6], 38.3%.

Regarding `O=C(NCCCN1CCN(c2ccncc2)CC1)c1cc2ccccc2o1`, the Ki on D(3) dopamine receptor [3] was > 0.01 µM; at Histamine H3 receptor [4] it was 0.91 µM. The inhibition against D(3) dopamine receptor [7] came out at 23.5%; in assay [6], 54.5%; on Histamine H3 receptor [8] it was 80.5%. At Cholinesterase, the IC50 came out at 85.1 µM.

In the case of `CN1CCN(CCOc2cccc3ccccc23)CC1`, the inhibition was 33.5% against D(3) dopamine receptor [2], 21.3% against Histamine H3 receptor [5] and 64.9% in assay [6]. The molecule also showed an IC50 against Cholinesterase of 58.9 µM.

Consider `O=C(OCCCN1CCN(c2ccccc2)CC1)c1ccc2ccccc2c1`, for which the inhibition against D(3) dopamine receptor [2] was 65.3%; against Histamine H3 receptor [5] it was 40.8%; in assay [6] it was 16.6%.

On to `CN1CCN(CCOC(=O)c2ccc3ccccc3c2)CC1`, for which the inhibition on D(3) dopamine receptor [2] worked out at 53.7%; at Histamine H3 receptor [5] it was 78.2%; in [6] it was 74.8%. The inhibition constant Ki is > 0.01 µM on D(3) dopamine receptor [3] and 2.2 µM at Histamine H3 receptor [4]. This molecule returned an IC50 against Cholinesterase of 57.5 µM.

For the molecule `O=C(OCCCN1CCN(c2ccccc2)CC1)c1cc2ccccc2o1`, in assay [6], the inhibition was 46.8%.

For the molecule `c1ccc(N2CCN(CCOc3ccc4ccccc4c3)CC2)cc1`, the inhibition against D(3) dopamine receptor [7] was found to be 45%; in assay [6] it was 17.5%; on Histamine H3 receptor [8], 23.3%.

Regarding `O=C(OCCN1CCN(c2ccccc2)CC1)c1ccc2ccccc2c1`, the inhibition at D(3) dopamine receptor [2] came to 32.8%; at Histamine H3 receptor [5], 61.5%; in [6], 36.5%.

Consider `c1ccc(N2CCN(CCCOc3cccc4ccccc34)CC2)cc1`, for which the inhibition in assay [6] came to 22.7%.

For `CN1CCN(CCOc2ccc3ccccc3c2)CC1`, the inhibition against D(3) dopamine receptor [2] is 15.2%; on Histamine H3 receptor [5] it was 39.3%; in assay [6], 48.4%.

For the molecule `CN(C)C(=O)Oc1cccc([N+](C)(C)C)c1` [NEOSTIGMINE], the inhibition in assay [6] was > 95%. This molecule registered an IC50 on Cholinesterase of 0.16 µM.

On to `O=C(NCCCCN1CCN(c2ccccc2)CC1)c1ccc2ccccc2c1`, for which the Ki at D(3) dopamine receptor [9] is 0.00092 µM.

On to `c1ccc(N2CCN(CCOc3cccc4ccccc34)CC2)cc1`, for which the inhibition against D(3) dopamine receptor [2] came to 34.5%; against Histamine H3 receptor [5] it was 39.8%; in assay [6] it was 26%.

As to `c1ccc(N2CCN(CCCOc3ccc4ccccc4c3)CC2)cc1`, the Ki on D(3) dopamine receptor [3] is 0.00034 µM; on Histamine H3 receptor [4], > 10 µM. The values for the inhibition (against D(3) dopamine receptor [7]; in assay [6]; against Histamine H3 receptor [8]) were 80.5%, 65.7% and 36.8%, respectively. This molecule also showed an IC50 on Cholinesterase of 53.7 µM.

On to `O=C(OCCCN1CCN(c2ccncc2)CC1)c1cc2ccccc2o1`, for which the results for the Ki at D(3) dopamine receptor [3] and on Histamine H3 receptor [4] were > 0.01 µM and 0.27 µM, respectively. Besides, the inhibition at D(3) dopamine receptor [7] was 18%; in assay [6] it was 49.9%; on Histamine H3 receptor [8] it was 88.8%. Besides, the IC50 was found to be 57.2 µM at Acetylcholinesterase and 97.7 µM on Cholinesterase.

Regarding `CN1CCN(CCCOC(=O)c2ccc3ccccc3c2)CC1`, the figures for the inhibition (against D(3) dopamine receptor [2]; on Histamine H3 receptor [5]; in assay [6]) were 77.7%, 96.3% and 85.1%, respectively. Further, the Ki is 0.0031 µM at D(3) dopamine receptor [3] and 1.1 µM on Histamine H3 receptor [4]. For the same molecule, the IC50 on Acetylcholinesterase was 97.8 µM; on Cholinesterase, 43.7 µM.

In the case of `CN1CCN(CCCOc2cccc3ccccc23)CC1`, the inhibition came to 47.8% against D(3) dopamine receptor [2], 70% on Histamine H3 receptor [5] and 60.2% in assay [6]. At Cholinesterase, this molecule came in with an IC50 of 78.5 µM.

As to `c1ccc2c(OCCN3CCN(c4ccncc4)CC3)cccc2c1`, the inhibition against D(3) dopamine receptor [7] is 37.7%; in assay [6] it was 65.4%; on Histamine H3 receptor [8], 54%. The IC50 against Acetylcholinesterase is 53.7 µM; against Cholinesterase, 40.7 µM.

`O=C(OCCN1CCN(c2ccccc2)CC1)c1cccc2ccccc12`: the inhibition against D(3) dopamine receptor [2] is 52.8%; against Histamine H3 receptor [5], 71.3%; in assay [6], 24.1%.

In the case of `O=C(OCCCN1CCN(c2ccccc2)CC1)c1cccc2ccccc12`, in assay [6], the inhibition was < 10%.

As to `CN1CCN(CCCOC(=O)c2cc3ccccc3o2)CC1`, the values for the inhibition (against D(3) dopamine receptor [2]; on Histamine H3 receptor [5]; in assay [6]) were 9%, 82.3% and 31.7%, respectively. For the same molecule, the Ki was > 0.01 µM on D(3) dopamine receptor [3] and 3.3 µM on Histamine H3 receptor [4].
